Measurements from PMC5218480 (PLoS ONE, 2017).

System: MV-4-11 cells
Test: Gene expression microarray analysis (Affymetrix PrimeView) and GSEA
Type: cell-based, human
Parameters: RFU PODN (11730768_x_at) / Fold change /veh PODN (11730768_x_at) / RFU LINC00158 (11744669_a_at) / Fold change /veh LINC00158 (11744669_a_at) / RFU DUSP10 (11751237_a_at) / Fold change /veh DUSP10 (11751237_a_at) / RFU ID3 (11757404_x_at) / Fold change /veh ID3 (11757404_x_at) / RFU PLEKHG5 (11737974_s_at) / Fold change /veh PLEKHG5 (11737974_s_at) / RFU LRRC4B (11730491_at) / Fold change /veh LRRC4B (11730491_at) / RFU GIMAP4 (11747438_a_at) / Fold change /veh GIMAP4 (11747438_a_at) / RFU KRT8 (11758183_x_at) / Fold change /veh KRT8 (11758183_x_at) / RFU CNN1 (11734310_a_at) / Fold change /veh CNN1 (11734310_a_at) / RFU VPS37D (11726825_at) / Fold change /veh VPS37D (11726825_at) / RFU C10orf10 (11716522_x_at) / Fold change /veh C10orf10 (11716522_x_at) / RFU KIR2DL2 /// KIR2DL4 /// KIR2DL5A /// KIR2DL5B /// KIR2DS1 /// KIR2DS2 /// KIR2DS3 /// KIR2DS4 /// KIR3DL3 /// KIR3DL3 /// KIR3DS1 (11738374_at) / Fold change /veh KIR2DL2 /// KIR2DL4 /// KIR2DL5A /// KIR2DL5B /// KIR2DS1 /// KIR2DS2 /// KIR2DS3 /// KIR2DS4 /// KIR3DL3 /// KIR3DL3 /// KIR3DS1 (11738374_at) / RFU C1QL1 (11718748_at) / Fold change /veh C1QL1 (11718748_at) / RFU TMPRSS4 (11747572_a_at) / Fold change /veh TMPRSS4 (11747572_a_at) / RFU HAMP (11756126_x_at) / Fold change /veh HAMP (11756126_x_at) / RFU RNFT2 (11725882_a_at) / Fold change /veh RNFT2 (11725882_a_at) / RFU NR4A2 (11747474_a_at) / Fold change /veh NR4A2 (11747474_a_at) / RFU ABCC12 (11746883_a_at) / Fold change /veh ABCC12 (11746883_a_at) / RFU TMEM136 (11760407_x_at) / Fold change /veh TMEM136 (11760407_x_at) / RFU CLDN22 /// WWC2 (11732394_at) / Fold change /veh CLDN22 /// WWC2 (11732394_at) / RFU HLA-DPB1 (11760878_x_at) / Fold change /veh HLA-DPB1 (11760878_x_at) / RFU SPINT1 (11716480_a_at) / Fold change /veh SPINT1 (11716480_a_at) / RFU GAP43 (11754022_s_at) / Fold change /veh GAP43 (11754022_s_at) / RFU A4GNT (11735810_at) / Fold change /veh A4GNT (11735810_at) / RFU PRB3 (11715151_x_at) / Fold change /veh PRB3 (11715151_x_at) / RFU TUBB4B (11761932_at) / Fold change /veh TUBB4B (11761932_at) / RFU CAPN14 (11732068_a_at) / Fold change /veh CAPN14 (11732068_a_at) / RFU TMCC2 (11721928_a_at) / Fold change /veh TMCC2 (11721928_a_at) / RFU IRGQ (11745062_a_at) / Fold change /veh IRGQ (11745062_a_at) / RFU FAM174B (11720279_a_at) / Fold change /veh FAM174B (11720279_a_at) / RFU TMPRSS4 (11748680_a_at) / Fold change /veh TMPRSS4 (11748680_a_at) / RFU FAM212B (11763350_a_at) / Fold change /veh FAM212B (11763350_a_at) / RFU PLEKHG5 (11743358_a_at) / Fold change /veh PLEKHG5 (11743358_a_at) / RFU ZSCAN30 (11745921_a_at) / Fold change /veh ZSCAN30 (11745921_a_at) / RFU CMKLR1 (11741424_a_at) / Fold change /veh CMKLR1 (11741424_a_at) / RFU LOC101060620 /// MAPK8IP1 (11723275_at) / Fold change /veh LOC101060620 /// MAPK8IP1 (11723275_at) / RFU SPTSSB (11747773_x_at) / Fold change /veh SPTSSB (11747773_x_at) / RFU PRSS12 (11739890_at) / Fold change /veh PRSS12 (11739890_at) / RFU BIN1 (11741810_x_at) / Fold change /veh BIN1 (11741810_x_at) / RFU WNT11 (11732464_a_at) / Fold change /veh WNT11 (11732464_a_at) / RFU C10orf10 (11716521_a_at) / Fold change /veh C10orf10 (11716521_a_at) / RFU C5orf56 (11738089_at) / Fold change /veh C5orf56 (11738089_at) / RFU CYB561 (11721691_x_at) / Fold change /veh CYB561 (11721691_x_at) / RFU ANKRD19P (11752326_a_at) / Fold change /veh ANKRD19P (11752326_a_at) / RFU OR2T12 /// OR2T33 /// OR2T8 (11738714_s_at) / Fold change /veh OR2T12 /// OR2T33 /// OR2T8 (11738714_s_at) / RFU VCAN (11748164_a_at) / Fold change /veh VCAN (11748164_a_at) / RFU JSRP1 (11732532_at) / Fold change /veh JSRP1 (11732532_at) / RFU KRTAP10-11 (11738290_x_at) / Fold change /veh KRTAP10-11 (11738290_x_at) / RFU MYO3A (11730013_a_at) / Fold change /veh MYO3A (11730013_a_at) / RFU EBF3 (11725865_a_at) / Fold change /veh EBF3 (11725865_a_at) / RFU CAMK2N1 (11719241_x_at) / Fold change /veh CAMK2N1 (11719241_x_at) / RFU C5orf56 (11738088_a_at) / Fold change /veh C5orf56 (11738088_a_at) / RFU OLFML3 (11715873_a_at) / Fold change /veh OLFML3 (11715873_a_at) / RFU LOC100653217 /// NTM (11731650_a_at) / Fold change /veh LOC100653217 /// NTM (11731650_a_at) / RFU MAPK11 (11762145_a_at) / Fold change /veh MAPK11 (11762145_a_at) / RFU FIZ1 (11724087_x_at) / Fold change /veh FIZ1 (11724087_x_at) / RFU OASL (11726364_x_at) / Fold change /veh OASL (11726364_x_at) / RFU SOX15 (11748057_x_at) / Fold change /veh SOX15 (11748057_x_at) / RFU CD79A (11719716_a_at) / Fold change /veh CD79A (11719716_a_at) / RFU HIST1H1D (11736915_at) / Fold change /veh HIST1H1D (11736915_at) / RFU CASKIN2 (11723855_a_at) / Fold change /veh CASKIN2 (11723855_a_at) / RFU LOC730098 (11760151_x_at) / Fold change /veh LOC730098 (11760151_x_at) / RFU OR4N2 (11742367_at) / Fold change /veh OR4N2 (11742367_at) / RFU PRRT2 (11749266_a_at) / Fold change /veh PRRT2 (11749266_a_at) / RFU SNX32 (11753110_a_at) / Fold change /veh SNX32 (11753110_a_at) / RFU CDHR5 (11726645_a_at) / Fold change /veh CDHR5 (11726645_a_at) / RFU RCAN1 (11760418_a_at) / Fold change /veh RCAN1 (11760418_a_at) / RFU FAM167A (11723789_a_at) / Fold change /veh FAM167A (11723789_a_at) / RFU FAM26E (11764081_at) / Fold change /veh FAM26E (11764081_at) / RFU ISYNA1 (11749810_s_at) / Fold change /veh ISYNA1 (11749810_s_at) / RFU ACY1 (11761880_at) / Fold change /veh ACY1 (11761880_at) / RFU 11764098_at / Fold change /veh 11764098_at / RFU SAMD14 (11745864_x_at) / Fold change /veh SAMD14 (11745864_x_at) / RFU NPB (11741838_a_at) / Fold change /veh NPB (11741838_a_at) / RFU TMPRSS6 (11731388_a_at) / Fold change /veh TMPRSS6 (11731388_a_at) / RFU KRTAP10-2 (11738614_at) / Fold change /veh KRTAP10-2 (11738614_at) / RFU ARHGAP8 /// PRR5-ARHGAP8 (11727945_x_at) / Fold change /veh ARHGAP8 /// PRR5-ARHGAP8 (11727945_x_at) / RFU KRTAP5-7 /// NADSYN1 (11734609_at) / Fold change /veh KRTAP5-7 /// NADSYN1 (11734609_at) / RFU RASL12 (11751679_a_at) / Fold change /veh RASL12 (11751679_a_at) / RFU CDKN2B (11736163_a_at) / Fold change /veh CDKN2B (11736163_a_at) / RFU PRF1 (11729649_at) / Fold change /veh PRF1 (11729649_at) / RFU, ZNF638 /// ZNF638-IT1 / Fold change vs veh, ZNF638 /// ZNF638-IT1 / RFU, PANK3 / Fold change vs veh, PANK3 / RFU, SH3YL1 / Fold change vs veh, SH3YL1 / RFU, ZEB2 / Fold change vs veh, ZEB2 / RFU, NRIP1 / Fold change vs veh, NRIP1 / RFU, PTTG1IP / Fold change vs veh, PTTG1IP / RFU, CAPN2 / Fold change vs veh, CAPN2 / RFU, MED14 / Fold change vs veh, MED14 / RFU, SNORA58 / Fold change vs veh, SNORA58 / RFU, C1orf63 / Fold change vs veh, C1orf63 / RFU, LRRFIP1 / Fold change vs veh, LRRFIP1 / RFU, NDUFAF7 / Fold change vs veh, NDUFAF7 / RFU, SLC12A2 / Fold change vs veh, SLC12A2 / RFU, IBTK / Fold change vs veh, IBTK / RFU, ESF1 / Fold change vs veh, ESF1 / Fold change vs veh, TMEM50B / RFU, TAOK1 / Fold change vs veh, TAOK1 / RFU, ACBD3 / Fold change vs veh, ACBD3 / RFU, TMA16 / Fold change vs veh, TMA16 / RFU, RWDD3 / Fold change vs veh, RWDD3 / RFU, BCAT1 / Fold change vs veh, BCAT1 / RFU, EDEM3 / Fold change vs veh, EDEM3 / RFU, TMEM33 / Fold change vs veh, TMEM33 / RFU, WDR75 / Fold change vs veh, WDR75 / RFU, AHCTF1 / Fold change vs veh, AHCTF1 / RFU, TFRC / Fold change vs veh, TFRC / RFU, ZDHHC17 / Fold change vs veh, ZDHHC17 / RFU, NOM1 / Fold change vs veh, NOM1 / RFU, ARL8B / Fold change vs veh, ARL8B / RFU, ZBTB11 / Fold change vs veh, ZBTB11 / RFU, TAMM41 / Fold change vs veh, TAMM41 / RFU, KIAA1704 /// LOC100996395 / Fold change vs veh, KIAA1704 /// LOC100996395 / RFU, ING1 / Fold change vs veh, ING1 / RFU, TRMT61B / Fold change vs veh, TRMT61B / RFU, FUBP3 / Fold change vs veh, FUBP3 / RFU, TP53 / Fold change vs veh, TP53 / RFU, TNKS2 / Fold change vs veh, TNKS2 / RFU, ZFP14 / Fold change vs veh, ZFP14 / RFU, ACTR2 / Fold change vs veh, ACTR2 / RFU, PPP3R1 / Fold change vs veh, PPP3R1 / RFU, PIK3R1 / Fold change vs veh, PIK3R1 / RFU, HNRNPA1 / Fold change vs veh, HNRNPA1 / RFU, RNF170 / Fold change vs veh, RNF170 / RFU, ZNF28 / Fold change vs veh, ZNF28 / RFU, RNGTT / Fold change vs veh, RNGTT / RFU, OGT / Fold change vs veh, OGT / RFU, BRD1 / Fold change vs veh, BRD1 / RFU, MARS / Fold change vs veh, MARS / RFU, ZNF655 / Fold change vs veh, ZNF655 / RFU, FAHD1 / Fold change vs veh, FAHD1 / RFU, BDP1 / Fold change vs veh, BDP1 / RFU, LRRCC1 / Fold change vs veh, LRRCC1 / RFU, ARID1A / Fold change vs veh, ARID1A / RFU, ZNF146 / Fold change vs veh, ZNF146 / RFU, ZNF330 / Fold change vs veh, ZNF330 / RFU, GPN3 / Fold change vs veh, GPN3 / RFU, C9orf123 / Fold change vs veh, C9orf123 / RFU, N4BP2L2 / Fold change vs veh, N4BP2L2 / RFU, ARFIP1 / Fold change vs veh, ARFIP1 / RFU, FAM179B / Fold change vs veh, FAM179B / RFU, BCL10 / Fold change vs veh, BCL10 / RFU, UHRF1BP1L / Fold change vs veh, UHRF1BP1L / RFU, BET1 / Fold change vs veh, BET1 / RFU, CNOT2 / Fold change vs veh, CNOT2 / RFU, ZNF268 / Fold change vs veh, ZNF268 / Fold change vs veh, ZNF507 / RFU, DGCR2 / Fold change vs veh, DGCR2 / RFU, WDSUB1 / Fold change vs veh, WDSUB1 / Fold change vs veh, HSP90B1 /// MIR3652 / RFU, ADSS / Fold change vs veh, ADSS / RFU, GK / Fold change vs veh, GK / RFU, ZNF148 / Fold change vs veh, ZNF148 / RFU, TAF9 / Fold change vs veh, TAF9 / RFU, SLC1A5 / Fold change vs veh, SLC1A5 / RFU, SLMO2 / Fold change vs veh, SLMO2 / RFU, ABCC4 / Fold change vs veh, ABCC4 / RFU, LOC101060439 /// RAP1B / Fold change vs veh, LOC101060439 /// RAP1B / RFU, RFX7 / Fold change vs veh, RFX7 / RFU, GTPBP10 / Fold change vs veh, GTPBP10 / RFU, CNEP1R1 / Fold change vs veh, CNEP1R1 / RFU, BIVM-ERCC5 /// ERCC5 / Fold change vs veh, BIVM-ERCC5 /// ERCC5 / RFU, ILF3 / Fold change vs veh, ILF3 / RFU 11762660_at / Fold change /veh 11762660_at / RFU VCAN (11757783_s_at) / Fold change /veh VCAN (11757783_s_at) / RFU DDX43 (11728927_at) / Fold change /veh DDX43 (11728927_at) / RFU KRT8 (11758188_x_at) / Fold change /veh KRT8 (11758188_x_at) / RFU NKD1 (11759106_at) / Fold change /veh NKD1 (11759106_at) / RFU SRD5A1 (11742802_a_at) / Fold change /veh SRD5A1 (11742802_a_at) / RFU TPSAB1 /// TPSB2 (11721975_s_at) / Fold change /veh TPSAB1 /// TPSB2 (11721975_s_at) / RFU GSTM3 (11746129_a_at) / Fold change /veh GSTM3 (11746129_a_at) / RFU IL23R (11737362_x_at) / Fold change /veh IL23R (11737362_x_at) / RFU TMEM51 (11727254_a_at) / Fold change /veh TMEM51 (11727254_a_at) / RFU PIWIL2 (11732686_x_at) / Fold change /veh PIWIL2 (11732686_x_at) / RFU ORM1 (11744905_x_at) / Fold change /veh ORM1 (11744905_x_at) / RFU CCDC152 (11743942_at) / Fold change /veh CCDC152 (11743942_at) / RFU ECM1 (11717891_a_at) / Fold change /veh ECM1 (11717891_a_at) / RFU IL23R (11748794_a_at) / Fold change /veh IL23R (11748794_a_at) / RFU TNFAIP8L3 (11732012_x_at) / Fold change /veh TNFAIP8L3 (11732012_x_at) / RFU MBOAT4 (11741988_at) / Fold change /veh MBOAT4 (11741988_at) / RFU 11764193_at / Fold change /veh 11764193_at / RFU TMEM53 (11763286_at) / Fold change /veh TMEM53 (11763286_at) / RFU MAGEB2 (11727129_at) / Fold change /veh MAGEB2 (11727129_at) / RFU TMEM200A (11744735_a_at) / Fold change /veh TMEM200A (11744735_a_at) / RFU CCDC152 (11751479_a_at) / Fold change /veh CCDC152 (11751479_a_at) / RFU FAM211A (11726209_a_at) / Fold change /veh FAM211A (11726209_a_at) / RFU RGS16 (11746705_a_at) / Fold change /veh RGS16 (11746705_a_at) / RFU VCAN (11755009_s_at) / Fold change /veh VCAN (11755009_s_at) / RFU RHOB (11743442_s_at) / Fold change /veh RHOB (11743442_s_at) / RFU RGS16 (11720943_a_at) / Fold change /veh RGS16 (11720943_a_at) / RFU RGS16 (11720944_at) / Fold change /veh RGS16 (11720944_at) / RFU, VPS4B / Fold change vs veh, VPS4B / RFU, CREB1 / Fold change vs veh, CREB1 / RFU, DNAJC13 / Fold change vs veh, DNAJC13 / RFU, GNAQ / Fold change vs veh, GNAQ / RFU, CDK5R1 / Fold change vs veh, CDK5R1 / RFU, ZRANB3 / Fold change vs veh, ZRANB3 / RFU, CUL4A / Fold change vs veh, CUL4A / RFU, CCNY / Fold change vs veh, CCNY / RFU, UFL1 / Fold change vs veh, UFL1 / RFU, COG3 / Fold change vs veh, COG3 / RFU, DIAPH2 / Fold change vs veh, DIAPH2 / RFU, SKA2 / Fold change vs veh, SKA2 / RFU, AFF3 / Fold change vs veh, AFF3 / RFU, LMF1 / Fold change vs veh, LMF1 / RFU, IPO11 / Fold change vs veh, IPO11 / RFU, DFFB / Fold change vs veh, DFFB / RFU, FOXP1 / Fold change vs veh, FOXP1 / RFU, CARD8 / Fold change vs veh, CARD8 / RFU, STRN3 / Fold change vs veh, STRN3 / RFU, ADK / Fold change vs veh, ADK / RFU, RASSF2 / Fold change vs veh, RASSF2 / RFU, WIPF1 / Fold change vs veh, WIPF1 / RFU, LARP1B / Fold change vs veh, LARP1B / RFU, RASA1 / Fold change vs veh, RASA1 / RFU, RB1 / Fold change vs veh, RB1 / RFU, PPFIA1 / Fold change vs veh, PPFIA1 / RFU, MAT2A / Fold change vs veh, MAT2A / RFU, CCT5 / Fold change vs veh, CCT5 / RFU, WDR92 / Fold change vs veh, WDR92 / RFU, CUX1 / Fold change vs veh, CUX1 / RFU, TTC7A / Fold change vs veh, TTC7A / RFU, TMEM135 / Fold change vs veh, TMEM135 / RFU, DEPTOR / Fold change vs veh, DEPTOR / RFU, CPM / Fold change vs veh, CPM / RFU, DNAJB6 / Fold change vs veh, DNAJB6 / RFU, CACNA2D3 / Fold change vs veh, CACNA2D3 / RFU, DTX4 / Fold change vs veh, DTX4 / RFU, TFCP2 / Fold change vs veh, TFCP2 / RFU, GMCL1 /// GMCL1P1 / Fold change vs veh, GMCL1 /// GMCL1P1 / RFU, AEBP2 / Fold change vs veh, AEBP2 / RFU, SNHG1 /// SNORD22 /// SNORD25 /// SNORD26 /// SNORD27 /// SNORD28 /// SNORD29 /// SNORD31 / Fold change vs veh, SNHG1 /// SNORD22 /// SNORD25 /// SNORD26 /// SNORD27 /// SNORD28 /// SNORD29 /// SNORD31 / Fold change (Aza/veh), C12orf56 (ProbeSet 11735607_a_at) / Fold change (ACY-1035/veh), C12orf56 (ProbeSet 11735607_a_at) / Fold change (Aza/veh), FGFR1OP (ProbeSet 11751329_s_at) / Fold change (ACY-1035/veh), FGFR1OP (ProbeSet 11751329_s_at) / Fold change (Aza/veh), VPS36 (ProbeSet 11739960_a_at) / Fold change (ACY-1035/veh), VPS36 (ProbeSet 11739960_a_at) / RFU SYPL1 (11715823_x_at) / Fold change /veh SYPL1 (11715823_x_at) / RFU IGFBP7 (11715501_s_at) / Fold change /veh IGFBP7 (11715501_s_at) / RFU REEP3 (11722064_at) / Fold change /veh REEP3 (11722064_at) / RFU IGLL1 (11728026_x_at) / Fold change /veh IGLL1 (11728026_x_at): dose or concentration left out as unconfirmed
Conditions: MV-4-11 cells, 48 hours

Nc1ncn([C@@H]2O[C@H](CO)[C@@H](O)[C@H]2O)c(=O)n1 [azacitidine]
RFU SPTSSB (11747773_x_at): 34.53 RFU
